Reference: PubChem BioAssay AID256 (DTP/NCI, 2004)
Several values for one entry are separate records, joined by “and”; a condition that tells them apart may be missing. Identical values can stand only once. Inconclusive results and toxic doses are left out.

Tested on: CD2F1 mice, L1210 leukemia ip, survival T/C
Test: NCI In Vivo Anticancer Drug Screen. Data for tumor model L1210 Leukemia (intraperitoneal) in CD2F1 (CDF1) mice
Conditions: higher = longer survival
How it was run: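 Tumor-bearing mice (transplanted tumor) were split into treated and vehicle control groups, and the measured endpoint of each treated group was divided by that of its vehicle controls.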

[1] = endpoint: mean survival time, dose: 100.0 mg/kg/injection, schedule: Q04DX003 (ip), vehicle: saline with Tween-80
[2] = endpoint: mean survival time, dose: 200.0 mg/kg/injection, schedule: Q04DX003 (ip), vehicle: saline with Tween-80
[3] = endpoint: mean survival time, dose: 400.0 mg/kg/injection, schedule: Q04DX003 (ip), vehicle: saline with Tween-80
[4] = endpoint: mean survival time, dose: 50.0 mg/kg/injection, schedule: Q01DX009 (ip), vehicle: saline with Tween-80
[5] = endpoint: mean survival time, dose: 100.0 mg/kg/injection, schedule: Q01DX009 (ip), vehicle: saline with Tween-80
[6] = endpoint: mean survival time, dose: 200.0 mg/kg/injection, schedule: Q01DX009 (ip), vehicle: saline with Tween-80
[7] = endpoint: mean survival time, dose: 100.0 mg/kg/injection, schedule: Q04DX003 (ip), vehicle: Klucel (hydroxypropylcellulose) (HPC)
[8] = endpoint: mean survival time, dose: 200.0 mg/kg/injection, schedule: Q04DX003 (ip), vehicle: Klucel (hydroxypropylcellulose) (HPC)
[9] = endpoint: mean survival time, dose: 12.5 mg/kg/injection, schedule: Q01DX009 (ip), vehicle: saline with Tween-80
[10] = endpoint: mean survival time, dose: 25.0 mg/kg/injection, schedule: Q01DX009 (ip), vehicle: saline with Tween-80
[11] = endpoint: mean survival time, dose: 400.0 mg/kg/injection, schedule: Q01DX009 (ip), vehicle: saline with Tween-80
[12] = endpoint: mean survival time, dose: 12.5 mg/kg/injection, schedule: Q04DX003 (ip), vehicle: Klucel (hydroxypropylcellulose) (HPC)
[13] = endpoint: mean survival time, dose: 25.0 mg/kg/injection, schedule: Q04DX003 (ip), vehicle: Klucel (hydroxypropylcellulose) (HPC)
[14] = endpoint: mean survival time, dose: 50.0 mg/kg/injection, schedule: Q04DX003 (ip), vehicle: Klucel (hydroxypropylcellulose) (HPC)

## O=c1oc(/C=C/c2ccccc2)nc2cc(Cl)ccc12
[1]
  T/C: 94 % of control
[2]
  T/C: 92 % of control
[3]
  T/C: 97 % of control

## COc1cc(OC)c(NC(=O)Nc2cccc(SC)c2)cc1Cl
[4]
  T/C: 92 % of control
[5]
  T/C: 88 % of control

## O=C1C2C3C=CC(C2C(=O)N1CO)C1C2C(=O)N(CO)C(=O)C2C31 (stereo not given)
endpoint: median survival time, dose: 6.25 mg/kg/injection, schedule: Q01DX009 (ip), vehicle: water
  T/C: 104 % of control
endpoint: median survival time, dose: 12.5 mg/kg/injection, schedule: Q01DX009 (ip), vehicle: water
  T/C: 107 % of control
endpoint: median survival time, dose: 25.0 mg/kg/injection, schedule: Q01DX009 (ip), vehicle: water
  T/C: 124 % of control
endpoint: median survival time, dose: 50.0 mg/kg/injection, schedule: Q01DX009 (ip), vehicle: water
  T/C: 190 % of control and 214 % of control
endpoint: median survival time, dose: 83.3 mg/kg/injection, schedule: Q01DX009 (ip), vehicle: water
  T/C: 100 % of control

## O=S1(=O)CC23CC=CCC2(CC=CC3)C1 (stereo not given)
endpoint: mean survival time, dose: 100.0 mg/kg/injection, schedule: Q04DX003 (ip), vehicle: other
  T/C: 100 % of control
endpoint: mean survival time, dose: 200.0 mg/kg/injection, schedule: Q04DX003 (ip), vehicle: other
  T/C: 102 % of control

## O=C1OCC2C1Cc1cc(O)c(O)cc1C2c1ccc(O)c(O)c1 (stereo not given)
endpoint: mean survival time, dose: 50.0 mg/kg/injection, schedule: Q01DX009 (ip), vehicle: Klucel (hydroxypropylcellulose) (HPC)
  T/C: 96 % of control
endpoint: mean survival time, dose: 100.0 mg/kg/injection, schedule: Q01DX009 (ip), vehicle: Klucel (hydroxypropylcellulose) (HPC)
  T/C: 101 % of control
endpoint: mean survival time, dose: 200.0 mg/kg/injection, schedule: Q01DX009 (ip), vehicle: Klucel (hydroxypropylcellulose) (HPC)
  T/C: 104 % of control

## COCC(=O)C(C(C)=O)C(c1ccccn1)C(C(C)=O)C(=O)COC (stereo not given)
endpoint: mean survival time, dose: 12.5 mg/kg/injection, schedule: Q04DX002 (ip), vehicle: saline with Tween-80
  T/C: 96 % of control
endpoint: mean survival time, dose: 25.0 mg/kg/injection, schedule: Q04DX002 (ip), vehicle: saline with Tween-80
  T/C: 96 % of control
endpoint: mean survival time, dose: 50.0 mg/kg/injection, schedule: Q04DX002 (ip), vehicle: saline with Tween-80
  T/C: 104 % of control

## CNC(=O)Nc1nccs1
[4]
  T/C: 105 % of control
[5]
  T/C: 106 % of control
[6]
  T/C: 97 % of control

## CNC(=S)Nc1ccc(OC)c2ccccc12
[7]
  T/C: 86 % of control
[8]
  T/C: 88 % of control
endpoint: mean survival time, dose: 400.0 mg/kg/injection, schedule: Q04DX003 (ip), vehicle: Klucel (hydroxypropylcellulose) (HPC)
  T/C: 89 % of control

## Nc1ncnc2c1c(-c1nnc3c(n1)-c1ccccc1C3=O)cn2C1OC(CO)C(O)C1O (stereo not given)
endpoint: mean survival time, dose: 100.0 mg/kg/injection, schedule: Q01DX005 (ip), vehicle: saline
  T/C: 100 % of control
endpoint: mean survival time, dose: 200.0 mg/kg/injection, schedule: Q01DX005 (ip), vehicle: saline
  T/C: 100 % of control

## C[CH2][Sn]1([CH2]C)[O]C2C(CO)OC(n3ccc4c(N)ncnc43)C2[O]1 (stereo not given)
endpoint: mean survival time, dose: 0.78 mg/kg/injection, schedule: Q01DX005 (ip), vehicle: other
  T/C: 110 % of control
endpoint: mean survival time, dose: 1.56 mg/kg/injection, schedule: Q01DX005 (ip), vehicle: other
  T/C: 104 % of control
endpoint: mean survival time, dose: 3.13 mg/kg/injection, schedule: Q01DX005 (ip), vehicle: other
  T/C: 117 % of control

## Cc1ncc([N+](=O)[O-])n1CCSC(N)=O
[9]
  T/C: 103 % of control
[10]
  T/C: 96 % of control
[4]
  T/C: 102 % of control
[5]
  T/C: 100 % of control
[6]
  T/C: 100 % of control
[11]
  T/C: 100 % of control

## C=CC1CN(CCc2cc3ccccc3[nH]2)CCC1CC(=O)OCC (stereo not given)
[1]
  T/C: 97 % of control
[2]
  T/C: 101 % of control
[3]
  T/C: 94 % of control

## CC(=O)c1cc(F)ccc1O
[5]
  T/C: 92 % of control
[6]
  T/C: 111 % of control
[11]
  T/C: 88 % of control

## CC12CCC(=O)C=C1CCC1C2CCC2(C)C(C(=O)Cn3c(=O)[nH]cc(F)c3=O)CCC12 (stereo not given)
[12]
  T/C: 94 % of control
[13]
  T/C: 94 % of control
[14]
  T/C: 97 % of control
[7]
  T/C: 91 % of control
[8]
  T/C: 95 % of control

## CCC1(C)CCC2C(=CCC3C(C)(C(=O)O)CCCC23C)C1 (stereo not given)
[1]
  T/C: 103 % of control
[2]
  T/C: 88 % of control
[3]
  T/C: 89 % of control

## CC1CC1C(=O)O (stereo not given)
endpoint: mean survival time, dose: 100.0 mg/kg/injection, schedule: Q04DX003 (ip), vehicle: saline
  T/C: 102 % of control
endpoint: mean survival time, dose: 200.0 mg/kg/injection, schedule: Q04DX003 (ip), vehicle: saline
  T/C: 102 % of control

## COc1cc2ccc(/C(C)=N/OC(C)=O)cc2cc1OC
[5]
  T/C: 100 % of control
[6]
  T/C: 102 % of control
[11]
  T/C: 97 % of control

## CCN(CC)CCCNc1nccc2c(C)c3[nH]c4ccncc4c3cc12
endpoint: median survival time, dose: 5.0 mg/kg/injection, schedule: Q01DX001 (ip), vehicle: other
  T/C: 124 % of control
endpoint: median survival time, dose: 10.0 mg/kg/injection, schedule: Q01DX001 (ip), vehicle: other
  T/C: 157 % of control
endpoint: median survival time, dose: 20.0 mg/kg/injection, schedule: Q01DX001 (ip), vehicle: other
  T/C: 175 % of control

## Cn1cnc([N+](=O)[O-])c1Sc1ncn[nH]1
endpoint: mean survival time, dose: 12.5 mg/kg/injection, schedule: Q01DX009 (ip), vehicle: saline
  T/C: 104 % of control
endpoint: mean survival time, dose: 12.5 mg/kg/injection, schedule: Q01DX009 (ip), vehicle: suspension in saline
  T/C: 101 % of control
endpoint: mean survival time, dose: 25.0 mg/kg/injection, schedule: Q01DX009 (ip), vehicle: saline
  T/C: 107 % of control
endpoint: mean survival time, dose: 25.0 mg/kg/injection, schedule: Q01DX009 (ip), vehicle: suspension in saline
  T/C: 104 % of control
endpoint: mean survival time, dose: 50.0 mg/kg/injection, schedule: Q01DX009 (ip), vehicle: saline
  T/C: 104 % of control
endpoint: mean survival time, dose: 50.0 mg/kg/injection, schedule: Q01DX009 (ip), vehicle: suspension in saline
  T/C: 104 % of control
endpoint: mean survival time, dose: 100.0 mg/kg/injection, schedule: Q01DX009 (ip), vehicle: saline
  T/C: 102 % of control
endpoint: mean survival time, dose: 100.0 mg/kg/injection, schedule: Q01DX009 (ip), vehicle: suspension in saline
  T/C: 106 % of control
endpoint: mean survival time, dose: 200.0 mg/kg/injection, schedule: Q01DX009 (ip), vehicle: saline
  T/C: 107 % of control
endpoint: mean survival time, dose: 400.0 mg/kg/injection, schedule: Q01DX009 (ip), vehicle: saline
  T/C: 104 % of control

## CC1(C)N=C(N)N=C(N)N1c1cccc(CCCCOc2ccccc2)c1
endpoint: mean survival time, dose: 6.25 mg/kg/injection, schedule: Q01DX009 (ip), vehicle: saline with Tween-80
  T/C: 101 % of control
[9]
  T/C: 111 % of control
[10]
  T/C: 108 % of control

## CC(C)(C)OC(=O)N1CCCC1C(=O)Oc1ccc([N+](=O)[O-])cc1 (stereo not given)
endpoint: mean survival time, dose: 25.0 mg/kg/injection, schedule: Q04DX003 (ip), vehicle: saline with Tween-80
  T/C: 98 % of control
endpoint: mean survival time, dose: 50.0 mg/kg/injection, schedule: Q04DX003 (ip), vehicle: saline with Tween-80
  T/C: 95 % of control
[1]
  T/C: 92 % of control and 93 % of control

## N/C(=N\O)c1ncn(C2CCCC2)c1N
endpoint: mean survival time, dose: 75.0 mg/kg/injection, schedule: Q01DX001 (ip), vehicle: other
  T/C: 100 % of control
endpoint: mean survival time, dose: 150.0 mg/kg/injection, schedule: Q01DX001 (ip), vehicle: other
  T/C: 102 % of control

## CC(=O)N(CC(=O)O)c1ccccc1
[5]
  T/C: 98 % of control
[6]
  T/C: 96 % of control
[11]
  T/C: 96 % of control

## COC(C(=O)C(O)C(C)O)C1CC2C=C3C=C(OC4CC(OC5CC(O)C(OC)C(C)O5)C(OC(C)=O)C(C)O4)C(C)C(=O)C3=C(O)C2=C(O)C1OC1CC(OC2CC(OC3CC(C)(O)C(O)C(C)O3)C(O)C(C)O2)C(O)C(C)O1 (stereo not given)
endpoint: mean survival time, dose: 0.25 mg/kg/injection, schedule: Q01DX009 (ip), vehicle: saline with Tween-80
  T/C: 92 % of control and 101 % of control and 104 % of control
endpoint: mean survival time, dose: 0.5 mg/kg/injection, schedule: Q01DX009 (ip), vehicle: saline with Tween-80
  T/C: 100 % of control and 101 % of control (2×)
endpoint: mean survival time, dose: 0.5 mg/kg/injection, schedule: Q01DX009 (ip), vehicle: saline
  T/C: 124 % of control
endpoint: mean survival time, dose: 1.0 mg/kg/injection, schedule: Q01DX009 (ip), vehicle: saline with Tween-80
  T/C: 101 % of control and 102 % of control
endpoint: mean survival time, dose: 1.0 mg/kg/injection, schedule: Q01DX009 (ip), vehicle: saline
  T/C: 98 % of control
endpoint: mean survival time, dose: 2.0 mg/kg/injection, schedule: Q01DX009 (ip), vehicle: saline with Tween-80
  T/C: 121 % of control and 108 % of control
endpoint: mean survival time, dose: 4.0 mg/kg/injection, schedule: Q01DX009 (ip), vehicle: saline
  T/C: 115 % of control
endpoint: mean survival time, dose: 8.0 mg/kg/injection, schedule: Q01DX009 (ip), vehicle: saline with Tween-80
  T/C: 189 % of control
endpoint: mean survival time, dose: 8.0 mg/kg/injection, schedule: Q01DX009 (ip), vehicle: saline
  T/C: 124 % of control

## C1=CC2C3c4ccccc4C(C2C1)[n+]1ccccc13 (stereo not given)
[12]
  T/C: 95 % of control
[13]
  T/C: 97 % of control
[14]
  T/C: 93 % of control
